From patent US8993756B2 (Merck Sharp & Dohme Corp., priority 2011, dated 2015) come the findings set out here.

In experiment [1] the target is JAK3 (Homo sapiens (Human), UniProt P52333). The experiment is described as follows: Jak Biochemical HTRF Assay (JAK3). The settings on record: recombinant GST-tagged catalytic domain, [ATP] 2.9 μM. Here is the method: (§1) Biological Assays Jak Biochemical HTRF Assay Protocol
The ability of compounds to inhibit the activity of JAK1, JAK2, JAK3, and Tyk2 was measured using a recombinant purified GST-tagged catalytic domain for each enzyme (Invitrogen JAK1 #M4290, JAK2 #M4290, JAK3 #M4290, Tyk2 #M4290) in an HTRF format biochemical assay. […] Subsequent reagent additions employed an Agilent Bravo. […] After equilibration, 2 μL of 10×ATP in 1× assay buffer was added to initiate the kinase reaction and the plates were shaken and then incubated at room temperature for 120 minutes. At the end of the incubation, 20 μL of 2× stop buffer (streptavidin-Dylight 650 (Thermo #84547B100 mL), Eu-tagged pY20 antibody (Perkin Elmer #AD0067), EDTA, HEPES, and Triton) was added to quench the reaction. […] After normalization to untreated controls, the percent inhibition of the HTRF signal at each compound concentration was calculated. The plot of percent inhibition versus the log of compound concentration was fit with a 4-parameter dose response equation to calculate IC50 values.
Background: Time-resolved FRET reads energy transfer from a long-lived donor to a nearby acceptor.

Experiment [2] deals with JAK2 (Homo sapiens (Human), UniProt O60674). The experiment is described as follows: Jak Biochemical HTRF Assay (JAK2). Conditions: recombinant GST-tagged catalytic domain, [ATP] 8.5 μM. The protocol:
as §1
The ability of compounds to inhibit the activity of JAK1, JAK2, JAK3, and Tyk2 was measured using a recombinant purified GST-tagged catalytic domain for each enzyme (Invitrogen JAK1 #M4290, JAK2 #M4290, JAK3 #M4290, Tyk2 #M4290) in an HTRF format biochemical assay. […] The basic assay protocol is as follows: First, 250 nL of diluted compounds in DMSO were dispensed into the wells of a dry 384-well Black plate (Greiner #781076) using a Labcyte Echo 555 acoustic dispenser. Subsequent reagent additions employed an Agilent Bravo. Next, 18 μL of 1.11× enzyme and 1.11× substrate in 1× assay buffer (Invitrogen kinase buffer # PV3189, 2 mM DTT, 0.05% BSA) were added to the wells and shaken and then preincubated for 30 minutes at room temperature to allow compound binding to equilibrate. After equilibration, 2 μL of 10×ATP in 1× assay buffer was added to initiate the kinase reaction and the plates were shaken and then incubated at room temperature for 120 minutes. At the end of the incubation, 20 μL of 2× stop buffer (streptavidin-Dylight 650 (Thermo #84547B100 mL), Eu-tagged pY20 antibody (Perkin Elmer #AD0067), EDTA, HEPES, and Triton) was added to quench the reaction. Plates were shaken and centrifuged and then incubated 60 minutes at room temperature and then read on a Perkin Elmer Envision (λex=337 nm, λem=665 and 615 nm, TRF delay time=20 μs). HTRF signal=10,000*665 nm reading 615 nm reading. After normalization to untreated controls, the percent inhibition of the HTRF signal at each compound concentration was calculated. The plot of percent inhibition versus the log of compound concentration was fit with a 4-parameter dose response equation to calculate IC50 values.

Structures are written as SMILES. pIC50: −log10 of the molar value.

Sequence of JAK2 (O60674 849-1124): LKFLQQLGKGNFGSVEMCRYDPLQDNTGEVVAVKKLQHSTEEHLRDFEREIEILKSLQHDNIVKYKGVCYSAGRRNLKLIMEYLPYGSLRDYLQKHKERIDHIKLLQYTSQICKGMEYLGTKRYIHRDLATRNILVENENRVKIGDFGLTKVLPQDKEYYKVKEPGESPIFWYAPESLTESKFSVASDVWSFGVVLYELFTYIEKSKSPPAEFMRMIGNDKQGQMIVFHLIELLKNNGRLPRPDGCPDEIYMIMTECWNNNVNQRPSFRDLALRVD
Sequence of JAK3 (P52333 822-1111): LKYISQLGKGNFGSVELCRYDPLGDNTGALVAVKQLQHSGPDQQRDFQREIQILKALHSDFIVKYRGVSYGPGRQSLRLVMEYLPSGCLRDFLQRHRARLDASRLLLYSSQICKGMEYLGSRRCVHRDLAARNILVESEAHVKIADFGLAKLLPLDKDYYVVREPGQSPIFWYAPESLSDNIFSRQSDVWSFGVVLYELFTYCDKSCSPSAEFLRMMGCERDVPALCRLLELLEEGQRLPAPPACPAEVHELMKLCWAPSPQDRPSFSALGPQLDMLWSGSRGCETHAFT

Turning to `CCOC(=O)c1c[nH]c2ncnc(-c3ccccc3)c12` [Example 1-1, Ethyl 4-phenyl-7H-pyrrolo[2,3-d]pyrimidine-5-carboxylate], the pIC50 in experiment [1] was 8.26; in experiment [2], 7.04. Take `CCOC(=O)c1c[nH]c2ncnc(-c3ccc(Cl)cc3)c12` [Example 1-2, Ethyl 4-(4-chlorophenyl)-7H-pyrrolo[2,3-d]pyrimidine-5-carboxylate]: the pIC50 in experiment [1] (given as range class) and in experiment [2] (given as range class) was 6.30 to 8.00 throughout. Regarding `CCOC(=O)c1c[nH]c2ncnc(-c3cccc(N)c3)c12` [Example 1-3, Ethyl 4-(3-aminophenyl)-7H-pyrrolo[2,3-d]pyrimidine-5-carboxylate], the negative logarithm of the IC50 (pIC50) is 6.30 to 8.00 in experiment [1] (given as range class) and less than 6.30 in experiment [2] (given as range class). The corresponding values for `CCOC(=O)c1c[nH]c2ncnc(-c3cc(N)nc(OC)c3)c12` [Example 1-4] are 6.30 to 8.00 and less than 6.30. As to `CCOC(=O)c1c[nH]c2ncnc(-c3ccc4cn(C)nc4c3)c12` [Example 1-5, ethyl 4-(2-methyl-2H-indazol-6-yl)-7H-pyrrolo[2,3-d]pyrimidine-5-carboxylate], the pIC50 in experiment [1] was 8.14; in experiment [2], 6.56. For `CCOC(=O)c1c[nH]c2ncnc(-c3cccc(C#N)c3)c12` [Example 1-6, ethyl 4-(3-cyanophenyl)-7H-pyrrolo[2,3-d]pyrimidine-5-carboxylate], the negative-log IC50 (pIC50) in experiment [1] (given as range class) and in experiment [2] (given as range class) was 6.30 to 8.00 throughout.

As to `CCOC(=O)c1c[nH]c2ncnc(-c3ccc(C(N)=O)cc3)c12` [Example 1-7, ethyl 4-(4-carbamoylphenyl)-7H-pyrrolo[2,3-d]pyrimidine-5-carboxylate], the negative logarithm of the IC50 (pIC50) is 6.30 to 8.00 in experiment [1] (given as range class) and less than 6.30 in experiment [2] (given as range class). In the case of `CCOC(=O)c1c[nH]c2ncnc(-c3cccc(C(=O)OC)c3)c12` [Example 1-8, ethyl 4-[3-(methoxycarbonyl)phenyl]-7H-pyrrolo[2,3-d]pyrimidine-5-carboxylate], the results for the pIC50 in experiment [1] (given as range class) and in experiment [2] (given as range class) were 6.30 to 8.00 and less than 6.30, respectively. Take `CCOC(=O)c1c[nH]c2ncnc(-c3ccc(C(=O)OC)cc3)c12` [Example 1-9, ethyl 4-[4-(methoxycarbonyl)phenyl]-7H-pyrrolo[2,3-d]pyrimidine-5-carboxylate]: the pIC50 is 6.30 to 8.00 in experiment [1] (given as range class) and less than 6.30 in experiment [2] (given as range class).

For the molecule `CCOC(=O)c1c[nH]c2ncnc(-c3ccc(C#N)cc3)c12` [Example 1-10, ethyl 4-(4-cyanophenyl)-7H-pyrrolo[2,3-d]pyrimidine-5-carboxylate], the pIC50 in experiment [1] (given as range class) was 6.30 to 8.00; in experiment [2] (given as range class) it was less than 6.30.

`CCOC(=O)c1c[nH]c2ncnc(-c3ccc(S(C)(=O)=O)cc3)c12` [Example 1-11, ethyl 4-[4-(methylsulfonyl)phenyl]-7H-pyrrolo[2,3-d]pyrimidine-5-carboxylate]: the pIC50 was 6.30 to 8.00 in experiment [1] (given as range class) and less than 6.30 in experiment [2] (given as range class). The corresponding values for `CCOC(=O)c1c[nH]c2ncnc(-c3cccc(C(N)=O)c3)c12` [Example 1-12, ethyl 4-(3-carbamoylphenyl)-7H-pyrrolo[2,3-d]pyrimidine-5-carboxylate] are 6.30 to 8.00 and less than 6.30.

Regarding `CCOC(=O)c1c[nH]c2ncnc(-c3ccc4c(F)n(C)nc4c3)c12` [Example 1-29, ethyl 4-(3-fluoro-2-methyl-2H-indazol-6-yl)-7H-pyrrolo[2,3-d]pyrimidine-5-carboxylate], in experiment [1], the pIC50 is 8.09. Regarding `CCOC(=O)c1c[nH]c2ncnc(-c3ccc(CO)c(N)c3)c12` [Example 1-32, ethyl 4-[3-amino-4-(hydroxymethyl)phenyl]-7H-pyrrolo[2,3-d]pyrimidine-5-carboxylate], in experiment [1], the negative logarithm of the IC50 (pIC50) was 8.08. Take `CCOC(=O)c1c[nH]c2ncnc(-c3cccc(Cl)c3)c12` [Example 1-39, ethyl 4-(3-chlorophenyl)-7H-pyrrolo[2,3-d]pyrimidine-5-carboxylate]: the pIC50 in experiment [1] is 8.08. With `CCOC(=O)c1c[nH]c2ncnc(-c3cccc(OCc4ccccc4)c3)c12` [Example 1-52, ethyl 4-[3-(benzyloxy)phenyl]-7H-pyrrolo[2,3-d]pyrimidine-5-carboxylate], the pIC50 in experiment [1] was 8.48.

The pIC50 is the IC50 on a negative log10 scale, so that one unit is a factor of ten.
